The test system of experiment [1] is purified bacterial succinyl-CoA synthetase (BSCS). Briefly: in-gel BN-PAGE ATP hydrolysis assay. It is filed as biochemical, Escherichia coli. Particulars: 8 mM ATP, 20 mM succinate, 0.5 mM CoA, 14 mM MgSO4, pH 7.8, room temperature.
Experiment [2] has the same test system. Briefly: in-gel BN-PAGE GTP hydrolysis assay. Type of experiment: biochemical, Escherichia coli. Conditions: 8 mM GTP, 20 mM succinate, 0.5 mM CoA, 14 mM MgSO4, pH 7.8, room temperature.

Chain of purified bacterial succinyl-CoA synthetase (BSCS) (P0AGE9 2-289): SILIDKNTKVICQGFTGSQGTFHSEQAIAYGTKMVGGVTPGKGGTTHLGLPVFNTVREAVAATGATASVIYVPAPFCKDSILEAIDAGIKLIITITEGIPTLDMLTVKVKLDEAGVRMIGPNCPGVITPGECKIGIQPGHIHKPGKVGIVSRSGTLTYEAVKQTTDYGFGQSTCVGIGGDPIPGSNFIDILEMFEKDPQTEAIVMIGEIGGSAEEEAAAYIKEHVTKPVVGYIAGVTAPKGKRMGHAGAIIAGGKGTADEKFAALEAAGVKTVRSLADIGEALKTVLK
Chain of purified bacterial succinyl-CoA synthetase (BSCS) (P0A836 whole entry, further chain): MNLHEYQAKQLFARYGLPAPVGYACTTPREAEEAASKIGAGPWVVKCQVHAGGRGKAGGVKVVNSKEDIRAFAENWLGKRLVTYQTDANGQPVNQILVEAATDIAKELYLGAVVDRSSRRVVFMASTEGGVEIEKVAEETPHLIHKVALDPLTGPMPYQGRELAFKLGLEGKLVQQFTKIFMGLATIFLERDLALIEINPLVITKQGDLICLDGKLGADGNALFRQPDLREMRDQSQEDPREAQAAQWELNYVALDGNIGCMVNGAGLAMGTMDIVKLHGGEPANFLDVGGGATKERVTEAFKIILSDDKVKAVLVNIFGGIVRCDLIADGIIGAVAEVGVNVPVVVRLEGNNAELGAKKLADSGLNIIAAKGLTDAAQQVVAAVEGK

Turning to `Nc1ncnc2c1ncn2[C@@H]1O[C@H](COP(=O)(O)OP(=O)(O)OP(=O)(O)O)[C@@H](O)[C@H]1O` [ATP], the “in-gel BN-PAGE ATP hydrolysis assay (lead phosphate)” value in experiment [1] was “ATP-dependent activity of BSCS was higher than the GTP-dependent activity”.
`Nc1nc2c(ncn2[C@@H]2O[C@H](COP(=O)(O)OP(=O)(O)OP(=O)(O)O)[C@@H](O)[C@H]2O)c(=O)[nH]1` [GTP]: the “in-gel BN-PAGE GTP hydrolysis assay (lead phosphate)” value in experiment [2] is given as “ATP-dependent activity of BSCS was higher than the GTP-dependent activity”.

Source of the values: PMC2766921 (Biochemistry, 2009).
